Data from patent US20260206761A1, “HETEROARYL-TRIAZOLE COMPOUNDS AS PESTICIDES” (Bayer Aktiengesellschaft, priority 2019, published 2026).

Assays:
Format in all cases: in vivo
[1] = test system: Rhipicephalus microplus larvae (strain Parkhurst, resistant against synthetic pyrethroids); test: Rhipicephalus (Boophilus) microplus in-vitro contact test, larval cattle tick; settings: after 48 hours, read-out: activity (efficacy: larvae dead or moribund); for pest or weed control at 100 g/ha: application rate 1 pg/cm^2 (=100 g/ha); for pest or weed control at 500 g/ha: application rate 5 pg/cm^2 (=500 g/ha)
Protocol: Rhipicephalus (Boophilus) microplus—In-Vitro Contact Tests Larval Cattle Tick (Strain Parkhurst. Resistant Against Synthetic Pyrethroids)
(§1) 9 mg compound is solved in 1 mL acetone and diluted with acetone to the desired concentration. 250 μL of the test solution is filled in 25 mL glass test tubes and homogeneously distributed on the inner walls by rotation and tilting on a shaking device (2 h at 30 rpm). With a compound concentration of 900 ppm, an inner surface of 44.7 cm^2 and a homogeneous distribution, a dose of 5 μg/cm^2 is achieved.
After the solvent has evaporated, each test tube is filled with 20-50 cattle tick larvae (Rhipicephalus microplus), closed with a perforated lid and incubated in a horizontal position at 85% relative humidity and 27° C. in an incubator. After 48 hours efficacy is determined. The larvae are patted on the ground of the tubes and negative geotactic behaviour is recorded.
An efficacy of 100% means all larvae are dead or moribund; 0% means no larvae are dead or moribund.

[2] = test system: adult brown dog ticks (Rhipicephalus sanguineus); test: Rhipicephalus sanguineus in-vitro contact test, adult brown dog ticks; settings: after 48 hours, read-out: activity (efficacy: ticks dead or moribund)
Protocol: Rhipicephalus sanguineus—In-Vitro Contact Tests with Adult Brown Dog Ticks
as §1
After the solvent has evaporated, each test tube is filled with 5-10 adult brown dog ticks (Rhipicephalus sanguineus), closed with a perforated lid and incubated in a lying position at room temperature and relative humidity. After 48 hours efficacy is determined. The ticks are patted on the ground of the tubes and are incubated on a heating plate at 45-50° C. for at most 5 minutes. Immotile or uncoordinated moving ticks, which are not able to escape the heat by climbing upwards, are marked as dead or moribund.
An efficacy of 100% means all ticks are dead or moribund; 0% means no ticks are dead or moribund.

[3] = test system: larvae of the banded cucumber beetle (Diabrotica balteata); test: Diabrotica balteata spray test; settings: 168 h, after 7 days, read-out: activity (efficacy: seedlings grown); for pest or weed control at 100 g/ha: application rate 100 g/ha (=32 pg/well)
Protocol: Diabrotica balteata—spray test
(§2) Solvent: 78.0 parts by weight of acetone • • 1.5 parts by weight of dimethylformamide
(§3) Emulsifier: alkylarylpolyglycol ether
(§4) To produce a suitable preparation of active compound, 1 part by weight of active compound is mixed with the stated amount of solvent, and the concentrate is diluted with water, containing an emulsifier concentration of 1000 ppm, to the desired concentration. Further test concentrations are prepared by dilution with emulsifier containing water.
Soaked wheat seeds (Triticum aestivum) are placed in a multiple well plate filled with agar and some water and are incubated for 1 day to germinate (5 seeds per well). The germinated wheat seeds are sprayed with a test solution containing the desired concentration of the active ingredient. Afterwards each unit is infected with 10-20 larvae of the banded cucumber beetle (Diabrotica balteata).
After 7 days efficacy in % is determined. 100% means all the seedlings have grown up like in the untreated, uninfected control; 0% means none of the seedlings have grown.

[4] = test system: larvae of the southern green stink bug (Nezara viridula); test: Nezara viridula spray test; settings: 96 h, after 4 days; for mortality at 500 g/ha: application rate 500 g/ha
Protocol: Nezara viridula—Spray Test
as §2, §3, §4
Barley plants (Hordeum vulgare) infested with larvae of the southern green stink bug (Nezara viridula) are sprayed with a test solution containing the desired concentration of the active ingredient.
After 4 days mortality in % is determined. 100% means all the stink bugs have been killed; 0% means none of the stink bugs have been killed.

[5] = test system: fall armyworm larvae (Spodoptera frugiperda); test: Spodoptera frugiperda spray test; settings: 168 h, read-out: activity (mortality)
Protocol: Spodoptera frugiperda—Spray Test
Solvent: 78.0 parts by weight acetone • 1.5 parts by weight dimethylformamide
as §3
as §4, with “solvents” for “solvent,”, “and” for “and the concentrate”
Maize (Zea mays) leaf sections are sprayed with a preparation of the active ingredient of the desired concentration. Once dry, the leaf sections are infested with fall armyworm larvae (Spodoptera frugiperda).
After 7 days mortality in % is determined. 100% means all caterpillars have been killed and 0% means none of the caterpillars have been killed.

[6] = test system: green peach aphid (Myzus persicae); test: Myzus persicae oral test; settings: 120 h, application rate 4 ppm, after 5 days
Protocol: Solvent: 100 parts by weight acetone
To produce a suitable preparation of active compound, 1 part by weight of active compound is mixed with the stated amount of solvent, and the concentrate is diluted with water to the desired concentration.
50 μL compound solution is filled in microtiter plates and 150 μL IPL41 insect medium (33%+15% sugar) is added to obtain a total volume of 200 μL per well. Afterwards the plates are sealed with parafilm through which a mixed population of the green peach aphid (Myzus persicae) can suck on the compound preparation.
After 5 days mortality in % is determined. 100% means all aphids have been killed and 0% means none of the aphids have been killed.

[7] = test system: adult engorged female ticks (Rhipicephalus microplus); test: Rhipicephalus (Boophilus) microplus injection test; settings: 168 h, egg deposition after 7 days, read-out: activity (efficacy: infertile eggs)
Protocol: Rhipicephalus (Boophilus) microplus—Injection Test
Solvent: dimethyl sulfoxide
To produce a suitable preparation of active compound, 10 mg of active compound are dissolved in 0.5 mL solvent, and the concentrate is diluted with solvent to the desired concentration.
Five adult engorged female ticks (Rhipicephalus microplus) are injected with 1 μL compound solution into the abdomen. The ticks are transferred into replica plates and incubated in a climate chamber.
After 7 days egg deposition of fertile eggs is monitored. Eggs where fertility is not visible are stored in a climate chamber till hatching after about 42 days. An efficacy of 100% means all eggs are infertile; 0% means all eggs are fertile.

C[C@H](NC(=O)c1cc(C(F)F)cc(S(C)(=O)=O)c1)c1nc(C2CC2)nn1-c1ccc(Cl)cn1 [I-57]
pest or weed control at 100 g/ha [1]: 100%
pest or weed control at 500 g/ha [1]: 100%
pest or weed control at 100 g/ha ([2]; application rate 1 pg/cm^2 (=100 g/ha)): 100%
pest or weed control at 5 µg/cm2, 500 g/ha ([2]; application rate 5 μg/cm^2 (=500 g/ha)): 80%
pest or weed control at 100 g/ha [3]: 100%
mortality at 100 g/ha ([4]; application rate 100 g/ha): 100%
mortality at 500 g/ha [4]: 90%
mortality at 100 g/ha [5]: 100%

COc1nc([C@H](C)NC(=O)c2cc(Cl)cc(S(=O)(=O)C3CC3)c2)n(-c2ccc(Cl)cn2)n1 [I-62]
pest or weed control at 100 g/ha [3]: 100%
mortality at 4 ppm [6]: 100%
mortality at 100 g/ha [5]: 100%

C[C@H](NC(=O)c1cc(C(F)(F)F)cc(S(C)(=O)=O)c1)c1nc(C2CC2)nn1-c1ccc(Cl)cn1 [I-68]
pest or weed control at 100 g/ha [3]: 100%
mortality at 4 ppm [6]: 100%
mortality at 100 g/ha [5]: 100%

COc1nc([C@H](C)NC(=O)c2cc(Br)cc(C3CC3(F)F)c2)n(-c2ccc(C#N)cn2)n1 (stereo partly drawn) [I-72]
pest or weed control at 100 g/ha [1]: 100%
pest or weed control at 500 g/ha [1]: 90%
mortality at 500 g/ha [4]: 90%
mortality at 100 g/ha [5]: 100%

COc1nc([C@H](C)NC(=O)c2cc(F)cc(S(C)(=O)=O)c2)n(-c2ccc(C#N)cn2)n1 [I-73]
pest or weed control at 100 g/ha [3]: 100%
mortality at 100 g/ha [5]: 100%

COc1nc([C@H](C)NC(=O)c2cc(Cl)cc(S(C)(=O)=O)c2)n(-c2ncc(Cl)cn2)n1 [I-78]
pest or weed control at 100 g/ha [3]: 100%
mortality at 100 g/ha [5]: 100%

CC(NC(=O)c1cc(OC(F)(F)F)cc(C2CC2)c1)c1nc(Cl)nn1-c1ccc(C#N)cn1 (stereo not drawn) [I-85]
pest or weed control at 100 g/ha [1]: 90%
pest or weed control at 500 g/ha [1]: 90%
pest or weed control at 100 g/ha [3]: 100%

C[C@H](NC(=O)c1cc(OC(F)F)cc(S(=O)(=O)C2CC2)c1)c1nc(C2CC2)nn1-c1ccc(C#N)cn1 [I-86]
pest or weed control at 100 g/ha [3]: 100%
mortality at 500 g/ha [4]: 100%
mortality at 100 g/ha [5]: 100%

COc1nc([C@H](C)NC(=O)c2cc(Cl)cc(S(=O)(=O)C3CC3)c2)n(-c2ccc(C#N)cn2)n1 [I-87]
mortality at 500 g/ha [4]: 100%
mortality at 100 g/ha [5]: 100%

COc1nc([C@H](C)NC(=O)c2cc(C(F)F)cc(S(C)(=O)=O)c2)n(-c2ccc(C#N)cn2)n1 [I-89]
mortality at 500 g/ha [4]: 100%
mortality at 100 g/ha [5]: 100%

C[C@H](NC(=O)c1cc(OC(F)(F)F)cc(S(=O)(=O)C2CC2)c1)c1nc(C2CC2)nn1-c1ccc(C#N)cn1 [I-90]
pest or weed control at 100 g/ha [3]: 100%
mortality at 500 g/ha [4]: 100%
mortality at 100 g/ha [5]: 100%

COc1nc([C@H](C)NC(=O)c2cc(OC(F)(F)F)cc(S(=O)(=O)C3CC3)c2)n(-c2ccc(C#N)cn2)n1 [I-92]
mortality at 500 g/ha [4]: 90%
mortality at 100 g/ha [5]: 100%

C[C@H](NC(=O)c1cc(Br)cc(C(C)(C)C)c1)c1nncn1-c1ccc(C#N)cn1 [II-2]
pest or weed control at 4 pg ([7]; application rate 4 pg/animal): 100%
pest or weed control at 0.02 mg ([7]; application rate 20 μg/animal): 100%
pest or weed control at 500 g/ha ([3]; application rate 500 g/ha (=160 pg/well)): 100%
mortality at 500 g/ha [5]: 100%

Cc1nc([C@H](C)NC(=O)c2sccc2C(F)(F)F)n(-c2ccc(C#N)cn2)n1 [II-10]
pest or weed control at 500 g/ha [1]: 90%
